Measured values as given in patent US11020333B2, “Organic compounds” (Givaudan SA, priority 2016, dated 2021).

Test: Determination of GC-odor threshold values (gas chromatograph with sniff port, panel of trained evaluators)
Conditions: absolute amount of compound delivered at the sniff port, identical conditions
From the text: As used herein, “odor threshold value” means the lowest concentration of a vapour in the air which can be detected by smell. Generally speaking, it can be said that a compound with a low odor threshold value is more powerful than a compound with a high odor threshold value and thus allows the use of very low concentration in a fragrance composition to achieve an olfactory effect.
EXAMPLE 24: DETERMINATION OF GC-ODOR THRESHOLD VALUES
According to standard procedures known to the person skilled in the art, threshold values for volatile perfumery compounds are determined on a gas chromatograph equipped with a sniff port by a panel of trained evaluators. The lowest concentration smelled by each panelist is recorded as the individual threshold value expressed in ng (absolute amount of compound delivered at the sniff port).
Under identical conditions the odor threshold value for the individual compounds was measured.

Structure (SMILES) | odor threshold value
CCCc1ccc2c(c1)CC(C)C2=O (centres unmarked) [2-methyl-5-propyl-2,3-dihydro-1H-inden-1-one] | 0.98 ng
C=C(C)Cc1cccc2c1C(=O)C(C)C2 (centres unmarked) [2-methyl-7-(2-methylallyl)-2,3-dihydro-1H-inden-1-one] | 4.96 ng
CC1Cc2cccc(C3CC3)c2C1=O (centres unmarked) [7-cyclopropyl-2-methyl-2,3-dihydro-1H-inden-1-one] | 4.31 ng
CC(C)Cc1ccc2c(c1)CC(C)C2=O (centres unmarked) [Comparison Example 1, 5-isobutyl-2-methyl-2,3-dihydro-1H-inden-1-one] | 1.56 ng
CCCc1cccc2c1CC(C)C2=O (centres unmarked) [Comparison Example 3, 2-methyl-4-propyl-2,3-dihydro-1H-inden-1-one] | 6.25 ng
C=C(C)Cc1cccc2c1CC(C)C2=O (centres unmarked) [Comparison Example 5, 2-methyl-4-(2-methylallyl)-2,3-dihydro-1H-inden-1-one] | 6.25 ng
CC1Cc2c(cccc2C2CC2)C1=O (centres unmarked) [Comparison Example 7, 4-cyclopropyl-2-methyl-2,3-dihydro-1H-inden-1-one] | 31.7 ng
CC(C)Cc1ccc2c(c1)C(=O)C(C)C2 (centres unmarked) [Example 1, 6-isobutyl-2-methyl-2,3-dihydro-1H-inden-1-one] | 0.06 ng
CCCc1ccc2c(c1)C(=O)C(C)C2 (centres unmarked) [Example 7, 2-methyl-6-propyl-2,3-dihydro-1H-inden-1-one] | 0.04 ng
CC1Cc2ccc(C3CC3)cc2C1=O (centres unmarked) [Example 11, 6-cyclopropyl-2-methyl-2,3-dihydro-1H-inden-1-one] | 0.46 ng
C=C(C)Cc1ccc2c(c1)C(=O)C(C)C2 (centres unmarked) [Example 22, 2-methyl-6-(2-methylallyl)-2,3-dihydro-1H-inden-1-one] | 0.24 ng
